{"source": "patent US20230212571A1", "about": "“COMPOSITIONS AND METHODS FOR DELIVERING POLYNUCLEOTIDES” (NeOnc Technologies, Inc., priority 2020, published 2023)", "key": {"AVM-BEC [1]": {"tested_on": "AVM-BEC", "experiment": "ELISA of AVM-BEC supernatants", "format": "cell-based, human", "text": "(§1) Human surgical specimens were obtained following written informed consent from patients in accordance with Declaration of Helsinki guidelines and the Institutional Review Board (HS-04B053), at Keck School of Medicine, USC. AVM-BECs were isolated from brain tissues of patients who underwent microsurgical AVM resection. Control BECs were isolated from the structurally normal […] of patients who underwent temporal lobectomy for intractable epilepsy. Endothelial cell (EC) isolation and culture were described^5,9. (Stapleton C J, Armstrong D L, Zidovetzki R, Liu C Y, Giannotta S L, Hofman F M. Thrombospondin-1 modulates the angiogenic phenotype of human cerebral arteriovenous malformation endothelial cells. Neurosurgery. 2011; 68(5):1342-1353) (Ferreira R, Santos T, Amar A, et al. Argonaute-2 promotes miR-18a entry in human brain endothelial cells. J Am Heart Assoc. 2014; 3(3):e000968) ECs were only used between passages 3-5. Experiments were performed under shear flow conditions (12 dyn/cm^2) to reproduce arterial flow^6. (Ferreira R, Santos T, Amar A, et al. MicroRNA-18a improves human cerebral arteriovenous malformation endothelial cell function. Stroke. 2014; 45(1):293-297). For hypoxic experiments, cells were cultured in a Galaxy 48R (Eppendorf) incubator at 3% O2. MicroRNAs were co-administered with Ago-2 to increase the cellular uptake of miR-18a^9 (Ferreira R, Santos T, Amar A, et al. Argonaute-2 promotes miR-18a entry in human brain endothelial cells. J Am Heart Assoc. 2014; 3(3):e000968) (FIG. 9). Methods regarding cell treatments and transfections were included in Data.\n(§2) Small interfering RNA transfection was performed as previously described^5. Briefly, ECs were transfected with small interfering RNA (siRNA) against ID1 or PAI-1 (Thermo Fisher Scientific), or small interfering control (Santa Cruz Biotechnology) constructs using Lipofectamine RNAiMax (Thermo Fisher Scientific) per the manufacturer's instructions. Knockdown of ID1 or PAI-1 was confirmed by quantitative real-time polymerase chain reaction as described^6 (FIG. 19). The sequences of the forward and reverse primers for ID1 and PAI-1 were included in Table 2.\n(§3) Plasmid constructs pcDNA3-ALK2^WT (Addgene #80870) and pcDNA3-ALK2^Q207D (Addgene #80871) were a gift from Aristidis Moustakas^7. (Meyer B, Schaller C, Frenkel C, Ebeling B, Schramm J. Distributions of local oxygen saturation and its response to changes of mean arterial blood pressure in the cerebral cortex adjacent to arteriovenous malformations. Stroke. 1999; 30(12):2623-2630) 10^4 AVM-BEC were seeded 24 h before transfection. The plasmid vector containing the 3′ untranslated region (3′UTR) of human BMP4, pRP [Exp]-Puro-CMV>Luciferase:{hBMP4_3′UTR}, was constructed and packaged by VectorBuilder. The vector ID is VB200205-1078zdv, which can be used to retrieve detailed information about the vector on vectorbuilder.com. Transient transfections were performed with Lipofectamine RNAiMax (Thermo Fisher Scientific) according to the manufacturer's instructions. After 4 h, medium was replaced by fresh medium containing microRNA.\n(§4) MiR-18a (hsa-miR-18a-5p, 40 nM, Dharmacon) or a scramble microRNA (40 nM, Dharmacon) in nuclease-free water was added with argonaute 2 (Ago-2, 0.4 nM, Abcam) as the microRNA carrier and stabilizer^9. (Ferreira R, Santos T, Amar A, et al. Argonaute-2 promotes miR-18a entry in human brain endothelial cells. J Am Heart Assoc. 2014; 3(3):e000968). No transfection reagent was used with miR-18a or scramble microRNA treatments. Recombinant human TSP-1 (R&D Systems) stock solution was prepared in PBS and further diluted in culture medium to be used at a final concentration of 1000 ng/mL. Cells were treated during 24 h for mRNA and 48 h for protein expression studies. NEO100 (NeOnc Technologies) stock was prepared in DMSO and used immediately or stored at −20° C. […]"}, "BEC": {"tested_on": "BEC", "experiment": "ELISA of control BEC supernatants", "format": "cell-based, human", "settings": "control BEC supernatants, normoxia", "text": "as §1, §2, §3, §4"}, "AVM-BEC [2]": {"tested_on": "AVM-BEC", "settings": "previous studies (Stapleton 2011); cited from earlier work"}}, "data": [{"substance": "TSP-1: Recombinant human TSP-1 (R&D Systems), used at 1000 ng/mL", "values": [{"measurement": "levels of secreted PAI-1", "setting": "AVM-BEC [1]; AVM-BEC supernatants, normoxia, vs scramble microRNA", "result": "decreased"}, {"measurement": "levels of secreted VEGF", "setting": "AVM-BEC [1]; AVM-BEC supernatants, normoxia, decrease only reached significance with miR-18a", "result": "decreased"}, {"measurement": "PAI-1 secretion", "setting": "AVM-BEC [1]; AVM-BEC, hypoxia 3% oxygen", "result": "neither treatment with TSP-1 (P=0.3917), nor ID1 knock-down (P=0.1701) were able to significantly decrease the levels of PAI-1"}, {"measurement": "levels of secreted PAI-1", "setting": "BEC", "result": "without affecting control BEC"}, {"measurement": "levels of secreted VEGF", "setting": "BEC", "result": "without affecting control BEC"}, {"measurement": "migration rate of AVM-BEC", "setting": "AVM-BEC [2]", "result": "decreases their migration rate"}]}]}
